The text below walks through data of patent US4528189A, “Urotensin peptides” (The Salk Institute For Biological Studies, priority 1983, dated 1985).

Test [1] concerns blood pressure. To be noted: reported, Erspamer et al.; cited from earlier work.
Test [2] relates to ACTH and β-endorphin secretion. The settings on record: reported; cited from earlier work.
In test [3] the test system is blood pressure. Briefly: mammalian vasodilatory-hypotensive activity (mesenteric blood flow, systemic blood pressure), species not stated. Format: in vivo. How it is done:
(§1) The urotensin peptides from Examples II and III are examined for effects on the secretion of ACTH and β-endorphin in vitro and also examined in vivo. […] UI activity of the peptides was measured by the isolated rat hind limb assay, Lederis, K. et al. "Effects and Assay of Urotensin I on the Perfused Hind Limb of the Rat", Gen. Comp. Endocrinol., 24:10-16, 1974. In vivo hypotensive activity of extracted peptides was measured in anaesthetized rats, Lederis, K. and Medakovic, M. "Pharmacological Observations on the Hypotensive Action of Extracts of Teleost Fish Urophyses (Urotensin I) in the Rat", Br. J. Pharmacol. 51:315-324, 1974, and in anaesthetized dogs, MacCannell and Lederis, "Dilatation of the Mesenteric Vascular Bed of the Dog Produced by a Peptide, Urotensin I", J. Pharm. Exp. Ther. 203:38-46, 1977.
(§2) The peptide having the formula: Ac-[…]NH2 is synthesized.
The peptide having the formula: H-Pro-Pro-Ile-Ser-Ile-Asp-Leu-Thr-Phe-His-Leu-Leu-Arg-Asn-Met-Ile-Glu-Met- Ala-Arg-Ile-Glu-Asn-Glu-Arg-NH2 is synthesized.

Test [4] deals with ACTH and β-END-LI secretion. Briefly: secretion of ACTH and β-END-LI, general procedure (Examples V, VI). The settings on record: general procedure of Example III as printed. The protocol: as §1, §2
Test [5] has as its system mesenteric vascular bed. Briefly: blood pressure and mesenteric vasodilatation in the anaesthetized dog. Format: in vivo. The settings on record: for potency of synthetic peptide versus extracted and purified peptide: anaesthetized dog in vivo; for dilatation of other (non-mesenteric) vascular beds / depression of the blood pressure: dog; for depression of the blood pressure: appears due solely to dilatation of the mesenteric vascular bed; for accompanying change in blood pressure (decrease) / increase in mesenteric flow: pentobarbital-anaesthetized dog, doses of 0.1-0.5 μg. How it is done:
as §1
(§3) In the pentobarbital-anaesthetized dog, the threshold dose of UI for mesenteric vasodilatation, when given close arterially into the cephalic mesenteric A, is between 0.001 and 0.01 μg for both sucker UI (1-41) and for the 4-41 fragment of sucker UI. Doses of 0.1-0.5 μg of both peptides produce a 50-150% increase in mesenteric flow; accompanying changes in blood pressure are very modest (about 10% decrease). […] Comp. Endocrinol. 45:446-452, 1981. Comparison of the two extracted and the two synthetic sucker peptides indicate that synthetic UI(1-41) have 111±16% activity and synthetic UI (4-41) have 123±14% activity, relative to the activity of the respective extracted sucker UI peptides.

Test [6] deals with ACTH and β-END-LI secretion. Briefly: ACTH and β-END-LI secretion in vivo in several rat preparations. How it is done: as §1
In test [7] the test system is mesenteric vascular bed. Briefly: blood pressure and vascular dilatation in the monkey. Format: in vivo. The settings on record: for depression of the blood pressure: appears due solely to dilatation of the mesenteric vascular bed. The protocol:
as §1

Test [8] concerns cultured rat pituitary cells. Briefly: secretion of ACTH and β-endorphin by cultured rat pituitary cells. Format: cell-based. The settings on record: for potency to stimulate the secretion of ACTH and β-endorphin: in vitro; for potency to stimulate ACTH and β-endorphin secretion compared with amunine (CRF): the two peptides substantially indistinguishable from each other. The protocol:
as §1

For test [9], the system named is blood pressure. Briefly: in vivo hypotensive activity in anaesthetized rats. The settings on record: rat; vascular dilatation appears less selective. How it is done:
(§4) UI activity in the fractions was measured by the isolated rat hind limb assay, Lederis, K. et al. "Effects and Assay of Urotensin I on the Perfused Hind Limb of the Rat." Gen Comp Endocrinol. 24:10-16, 1974. In vivo hypotensive activity of extracted peptides or those obtained by enzymatic cleavage was measured in anaesthetized rats, Lederis, K. et al. "Pharmacological Observations on the Hypotensive Action of Extracts of Teleost Fish Urophyses (Urotensin I) in the Rat", Br. J. Pharmac. 51:315-324, 1974.
as §1

Test [10] concerns isolated mesenteric artery strips. Briefly: isolated mesenteric artery strips of the rat. How it is done: as §3
The subject of a further test is isolated rat hind limb. Briefly: isolated rat hind limb assay. The protocol:
as §4
as §1, with “1977. […]” for “1977.”

The nature of test [11]: comparison of extracted and synthetic sucker peptides (activity relative to extracted peptide). To be noted: synthetic versus extracted peptide. The protocol: as §3
For another test, the system named is teleost fish pituitaries. Briefly: secretion of ACTH by teleost fish pituitaries. The protocol:
as §1

Where two headings read alike, the source gives them in different places.

For the compound `CC[C@H](C)[C@H](NC(=O)[C@@H](NC(=O)[C@H](CC(=O)O)NC(=O)[C@H](CC(C)C)NC(=O)[C@H](CC(C)C)NC(=O)[C@H](CC(C)C)NC(=O)[C@H](CCCNC(=N)N)NC(=O)[C@H](CC(N)=O)NC(=O)[C@H](CC(N)=O)NC(=O)[C@H](C)NC(=O)[C@H](C)NC(=O)[C@H](CCC(N)=O)NC(=O)[C@H](CCC(N)=O)NC(=O)[C@H](CCCCN)NC(=O)[C@H](CCC(=O)O)NC(=O)[C@H](CCCCN)NC(=O)[C@H](CCC(=O)O)NC(=O)[C@H](CCC(N)=O)NC(=O)[C@H](CCCCN)NC(=O)[C@H](CCC(=O)O)NC(=O)[C@@H](NC(=O)[C@H](CCC(=O)O)NC(=O)[C@@H](NC(=O)[C@H](CCSC)NC(=O)[C@H](CCCCN)NC(=O)[C@H](CCCNC(=N)N)NC(=O)[C@H](CC(C)C)NC(=O)[C@H](CC(C)C)NC(=O)[C@H](CCC(=O)O)NC(=O)[C@H](CC(C)C)NC(=O)[C@H](CO)NC(=O)[C@H](CC(C)C)NC(=O)[C@H](CC(=O)O)NC(=O)[C@@H](NC(=O)[C@H](CO)NC(=O)[C@@H](NC(=O)[C@@H]1CCCN1C(=O)[C@@H]1CCCN1C(=O)CNC(=O)[C@@H]1CCC(=O)N1)[C@@H](C)CC)[C@@H](C)CC)[C@@H](C)CC)[C@@H](C)CC)[C@@H](C)O)C(N)=O` [Sauvagine], in the test with blood pressure [1], the “lowering blood pressure in mammals” value is on record as “biological activity in lowering blood pressure in mammals”. For the same compound, the “stimulating the secretion of ACTH and β-endorphin” value in [2] was “stimulating the secretion of ACTH and β-endorphin”.
Turning to “Ac-APPISIDLTFHLLRNMIEMARIENEREQAGLNRKYLDEV-NH2 [V]”, in the test on blood pressure [3], the “vasodilatory-hypotensive activity (mesenteric blood flow, systemic blood pressure)” value (“vasodilatory-hypotensive activity” below) is “very significant increasing of mesenteric blood flow and lowering of systemic blood pressure”. Moreover, the “stimulation of the secretion of ACTH and β-END-LI” value in test [4] was “stimulates the secretion of ACTH and β-END-LI”.
As to “H-NDDPPISIDLTFHLLRNMIEMARIENEREQAGLNRKYLDEV-NH2 [urotensin I]”, the “vasodilatory-hypotensive activity” value with blood pressure [3] is given as “substantially lower blood presssure for an extended time period”. Moreover, in the test on mesenteric vascular bed [5], the “potency of synthetic peptide versus extracted and purified peptide” value was “equipotent with the extracted and purified peptides”; the “dilatation of other (non-mesenteric) vascular beds” value was “neither peptide dilates other vascular beds”; the “depression of the blood pressure” value is given as “modest but sustained depression of the blood pressure”; the “accompanying change in blood pressure (decrease)” value is “about 10%”. Also, in the test on mesenteric vascular bed [5], the “increase in mesenteric flow” value is 50-150%. The “stimulation of ACTH and β-END-LI secretion in vivo” value (“stimulation … in vivo” for short) in test [6] was “stimulate ACTH and β-END-LI secretion in vivo”. The “stimulation … in vivo” value in [6] (listed as synthetic UI) is “stimulate ACTH and β-endorphin activies in vitro and in vivo”. Besides, in the test with mesenteric vascular bed [7], the “dilatation of other (non-mesenteric) vascular beds” value is on record as “neither peptide dilates other vascular beds” and the “depression of the blood pressure” value was “modest but sustained depression of the blood pressure”. In [8], the “potency to stimulate the secretion of ACTH and β-endorphin” value (“potency to stimulate the secretion” below) is recorded as “high potency”; the “potency to stimulate ACTH and β-endorphin secretion compared with amunine (CRF)” value is reported as “comparable to amunine (CRF)”. For the same compound, in test [8] (listed as synthetic UI), the “potency to stimulate the secretion” value was “stimulate ACTH and β-endorphin activies in vitro”. The “fall in blood pressure” value in the test with blood pressure [9] was “more marked fall in blood pressure”. For the same compound, in [10], the “potency of synthetic peptide versus extracted and purified peptide” value was “equipotent with the extracted and purified peptides”. Besides, the “potency of synthetic peptide versus extracted and purified peptide” value in the test with isolated rat hind limb was “equipotent with the extracted and purified peptides”. Moreover, the “activity relative to the activity of the respective extracted sucker UI peptide” value in [11] is recorded as 111±16%. Also, the “potency in stimulating the secretion of ACTH relative to amunine” value in the test on teleost fish pituitaries is on record as “several times more potent than amunine”.
Turning to “H-PPISIDLTFHLLRNMIEMARIENER-NH2 [VI, H-Pro-Pro-Ile-Ser-Ile-Asp-Leu-Thr-Phe-His-Leu-Leu-Arg-Asn-Met-Ile-Glu-Met- Ala-Arg-Ile-Glu-Asn-Glu-Arg-NH2]”, the “vasodilatory-hypotensive activity” value with blood pressure [3] was “significant mammalian vasodilatory-hypotensive activity”.
“H-PPISIDLTFHLLRNMIEMARIENEREQAGLNRKYLDEV-NH2 [urotensin I (4-41)]”: the “vasodilatory-hypotensive activity” value in the test on blood pressure [3] was “substantially lower blood presssure for an extended time period”. The “potency of synthetic peptide versus extracted and purified peptide” value with mesenteric vascular bed [5] was “equipotent with the extracted and purified peptides”; in [10], “equipotent with the extracted and purified peptides”; in the test on isolated rat hind limb, “equipotent with the extracted and purified peptides”. Also, the “dilatation of other (non-mesenteric) vascular beds” value in the test with mesenteric vascular bed [5] and in the test with mesenteric vascular bed [7] was “neither peptide dilates other vascular beds” each time. The “depression of the blood pressure” value with mesenteric vascular bed [5] and in the test with mesenteric vascular bed [7] was “modest but sustained depression of the blood pressure” each time. For the same compound, the “accompanying change in blood pressure (decrease)” value with mesenteric vascular bed [5] is on record as “about 10%”. Further, the “increase in mesenteric flow” value in the test on mesenteric vascular bed [5] is 50-150%. The “stimulation … in vivo” value was “stimulate ACTH and β-END-LI secretion in vivo” in test [6]; “stimulate ACTH and β-endorphin activies in vitro and in vivo” in [6] (listed as UI 4-41). Moreover, the “potency to stimulate the secretion” value in test [8] was “high potency”; in test [8] (listed as UI 4-41) it was “stimulate ACTH and β-endorphin activies in vitro”. Besides, the “potency to stimulate ACTH and β-endorphin secretion compared with amunine (CRF)” value in test [8] was “comparable to amunine (CRF)”. For the same compound, in the test with blood pressure [9], the “fall in blood pressure” value is on record as “more marked fall in blood pressure”. For the same compound, the “activity relative to the activity of the respective extracted sucker UI peptide” value in [11] was found to be 123±14%. The “potency in stimulating the secretion of ACTH relative to amunine” value with teleost fish pituitaries is reported as “several times more potent than amunine”.
